Reference: US7414132B2, “Opioid receptor antagonists” (Eli Lilly and Company, priority 2003, dated 2008)

Legend:
Format in all cases: biochemical
[1] = target: kappa opioid receptor (KOR) (Homo sapiens, UniProt P41145); assay: SPA-based GTP-γ-S binding assay, kappa opioid receptor; conditions: membranes, GTP-γ-[35S] SPA; antagonist assay with agonist U69593 300 nM; read-out: In Vitro Ki Kappa
Protocol: (§1) An SPA-based GTP-γ-S assay format was developed based on previous opioid (Emmerson et al., J. Pharm Exp Ther 278, 1121, 1996; Horng et al., Society for Neuroscience Abstracts, 434.6, 2000) and muscarinic (DeLapp et al., JPET 289, 946, 1999) assay formats. Membranes were re-suspended in 20 mM HEPES, 100 mM NaCl, 5 mM MgCl2, 1 mM DTT, and 1 mM EDTA. Fifty (50) […] of GTP-γ-[35S], compound, membrane suspension (20 microgram/well), and wheat germ agglutinin coated SPA beads (1 mg/well) were added to clear bottom 96 well assay plates. GDP ([…]) was added to the membrane solution prior to addition to the assay plates. Plates were sealed and incubated for four hours at room temperature then placed in a refrigerator overnight to allow the beads to settle. Signal stability at 4° C. was determined to be >60 hours. Plates were warmed to room temperature and counted in a Wallac Microbeta scintillation counter.
(§2) For antagonist assays, specific agonists were added at the following concentrations: (MOR) DAMGO 1 micromolar, (DOR) DPDPE 30 nM, (KOR) U69593 300 nM. Kb's were determined by Cheng-Prusoff equation (see Cheng and Prusoff, Biochem. Pharmacol. 22, 3099, 1973).

[2] = target: delta opioid receptor (DOR) (Homo sapiens, UniProt P41143); assay: SPA-based GTP-γ-S binding assay, delta opioid receptor; conditions: membranes, GTP-γ-[35S] SPA; antagonist assay with agonist DPDPE 30 nM; read-out: In Vitro Ki Delta
Protocol: as §1, §2

mu opioid receptor (MOR) = mu opioid receptor (MOR) (Homo sapiens, UniProt P35372); assay: SPA-based GTP-γ-S binding assay, mu opioid receptor; conditions: membranes, GTP-γ-[35S] SPA; antagonist assay with agonist DAMGO 1 micromolar; read-out: In Vitro Ki Mu
Protocol: as §1, §2

Chain of mu opioid receptor (MOR) (P35372 whole entry): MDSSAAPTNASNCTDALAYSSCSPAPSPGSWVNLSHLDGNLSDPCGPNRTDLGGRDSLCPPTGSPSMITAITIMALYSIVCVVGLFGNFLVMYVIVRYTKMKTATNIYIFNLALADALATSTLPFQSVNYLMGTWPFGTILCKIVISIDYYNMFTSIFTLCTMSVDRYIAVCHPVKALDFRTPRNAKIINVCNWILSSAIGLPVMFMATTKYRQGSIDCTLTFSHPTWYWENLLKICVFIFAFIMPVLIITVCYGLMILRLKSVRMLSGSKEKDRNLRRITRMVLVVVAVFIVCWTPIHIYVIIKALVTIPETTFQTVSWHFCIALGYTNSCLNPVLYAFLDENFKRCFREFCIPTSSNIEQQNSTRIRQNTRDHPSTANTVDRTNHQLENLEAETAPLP
Chain of kappa opioid receptor (KOR) (P41145 whole entry): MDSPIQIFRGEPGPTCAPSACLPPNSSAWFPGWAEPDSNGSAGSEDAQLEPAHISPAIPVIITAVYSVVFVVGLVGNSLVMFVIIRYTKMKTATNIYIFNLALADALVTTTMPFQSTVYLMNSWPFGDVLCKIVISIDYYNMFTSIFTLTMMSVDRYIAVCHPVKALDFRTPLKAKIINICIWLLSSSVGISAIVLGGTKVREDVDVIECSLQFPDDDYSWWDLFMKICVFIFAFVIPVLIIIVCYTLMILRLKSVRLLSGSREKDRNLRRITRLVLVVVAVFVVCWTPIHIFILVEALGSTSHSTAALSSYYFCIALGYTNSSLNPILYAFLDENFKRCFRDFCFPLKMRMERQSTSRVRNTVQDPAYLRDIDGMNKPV
Chain of delta opioid receptor (DOR) (P41143 whole entry): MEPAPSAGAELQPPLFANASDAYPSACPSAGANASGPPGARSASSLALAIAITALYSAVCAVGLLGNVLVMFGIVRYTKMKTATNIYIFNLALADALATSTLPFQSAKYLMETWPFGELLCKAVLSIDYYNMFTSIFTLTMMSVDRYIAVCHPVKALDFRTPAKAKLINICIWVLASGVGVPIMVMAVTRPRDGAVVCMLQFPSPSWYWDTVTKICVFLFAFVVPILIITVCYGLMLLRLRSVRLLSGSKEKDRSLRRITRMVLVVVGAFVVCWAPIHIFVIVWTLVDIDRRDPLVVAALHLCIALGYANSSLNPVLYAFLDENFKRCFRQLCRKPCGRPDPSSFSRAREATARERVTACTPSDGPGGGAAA

Row | Ki [1] [nM] | Ki [2] [nM] | Ki (mu opioid receptor (MOR)) [nM] | Compound
1 | 34.1 | 120 | 9.5 | CC(C)CCNCc1ccc(Oc2ccc(C3=NCCN3)cn2)cc1 [Example 4, {4-[5-(4,5-Dihydro-1H-imidazol-2-yl)-pyridin-2-yloxy]-benzyl}-(3-methyl-butyl)-amine]
2 | 134 | 485 | 46.1 | CC(C)CCNCc1ccc(Oc2ccc(C(=N)N)cn2)cc1 [Example 3, 6-{4-[(3-Methyl-butylamino)-methyl]-phenoxy}-nicotinamidine]
3 | 47.5 | 81.1 | 5.81 | CC(C)CCNCc1ccc(Oc2ccc3c(N)noc3c2)cc1 [Example 11, 6-{4-[(3-Methyl-butylamino)-methyl]-phenoxy}-benzo[d]isoxazol-3-ylamine]
4 | 43.2 | 178 | 7.83 | CC(C)CCNCc1ccc(Oc2ccc(/C(N)=N/C#N)cn2)cc1 [Example 8, N-Cyano-6-{4-[(3-methyl-butylamino)-methyl]-phenoxy}-nicotinamidine]
5 | 117 | 269 | 43.4 | CC(C)CCNCc1ccc(Oc2ccc(/C(N)=N/O)cn2)cc1 [Example 2, N-Hydroxy-6-{4-[(3-methyl-butylamino)-methyl]-phenoxy}-nicotinamidine]
6 | 40.1 | 214 | 5.77 | CC(C)CCNCc1ccc(Oc2ccc(-c3ncc[nH]3)cn2)cc1 [Example 10, {4-[5-(1H-Imidazol-2-yl)-pyridin-2-yloxy]-benzyl}-(3-methyl-butyl)-amine]
7 | 32.8 | 370 | 16.4 | c1csc(CCNCc2ccc(Oc3ccc(C4=NCCN4)cn3)cc2)c1 [Example 5, {4-[5-(4,5-Dihydro-1H-imidazol-2-yl)-pyridin-2-yloxy]-benzyl}-(2-thiophen-2yl-ethyl)amine]
